# Test system: NF-κB mediated transcription
# Test: NF-κB driven β-lactamase reporter assay in ECV-304 NF-κB.βlaZ cells (AURORA CCF2 fluorescence)
# Type: cell-based, human
# Settings: 10 μM compound; ECV-304 NF-κB.βlaZ cells stimulated with 10 ng/mL TNF-α or 100 pg/mL IL-1β, 6 hours at 37° C.; inhibition of maximum blue/green ratio
# In short: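 Blue/green (460/530 nm, excitation 395 nm) CCF2 emission ratio quantified NF-κB-driven β-lactamase expression in the stably transfected endothelial-like ECV-304 clone 1E8.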
row,Compound,Percent Inhibition at 10 μM [%]
1,"CC(C)c1cccc(C(C)C)c1NC(=O)NS(=O)(=O)N(CC1CCCO1)CC1CCCO1 (stereo not shown) [Example 41, N-[2,6-bis(1-methylethyl)phenyl]-N′-[[bis[(tetrahydro-2-furanyl)methyl]amino]sulfonyl]-urea,]",<10

# Same assay, conditions: Homo sapiens, ECV-304, 6 h, 10 μM compound; ECV-304 NF-κB.βlaZ cells stimulated with 10 ng/mL TNF-α or 100 pg/mL IL-1β, 6 hours at 37° C.; inhibition of maximum blue/green ratio; read-out: Percent Inhibition at 10 μM
row,Compound,inhibition at 10 µM [%]
1,"CCCCCCCCCCCCOC(=O)NS(=O)(=O)Nc1c(OC)cc(OC)cc1OC [Example 79, Carbamic acid, [[(2,4,6-trimethoxyphenyl)amino]sulfonyl]-, dodecyl ester]",< 10
2,"CC(C)c1cccc(C(C)C)c1NC(=O)NS(=O)(=O)N(Cc1ccccc1)C(C)C [Example 22, N-[2,6-bis(1-methylethyl)phenyl]-N′-[[(1-methylethyl)-(phenylmethyl)amino]-sulfonyl]-urea]",20.2
3,"CC(C)c1cccc(C(C)C)c1NS(=O)(=O)NC(=O)N(Cc1ccccc1)Cc1ccccc1 [Example 29, N′-[[[2,6-bis(1-methylethyl)phenyl]amino]sulfonyl]-N,N-bis(phenylmethyl)-urea]",38.5
4,"CC(C)c1cccc(C(C)C)c1OS(=O)(=O)NC(=O)Cc1ccsc1 [Example 149, (Thiophen-3-yl-acetyl)-sulfamic acid 2,6-diisopropyl-phenyl ester]",< 10
5,"CC(=O)Nc1cc(C(C)C)c(OS(=O)(=O)NC(=O)Cc2c(C(C)C)cc(C(C)C)cc2C(C)C)c(C(C)C)c1 [Example 196, [(2,4,6-Triisopropyl-phenyl)-acetyl]-sulfamic acid 4-acetylamino-2,6-diisopropyl-phenyl ester]",73.1
6,"CCCCCN(CCCCC)S(=O)(=O)NC(=O)Nc1c(C(C)C)cccc1C(C)C [Example 64, Urea, N-[2,6-bis(1-methylethyl)phenyl]-N′-[(dipentylamino)sulfonyl]-]",55.4
7,"CCCCCCC(C)OC(=O)NS(=O)(=O)Oc1c(C(C)C)cccc1C(C)C (stereo not shown) [Example 109, Carbamic acid, [[2,6-bis(1-methylethyl)phenoxy]sulfonyl]-, 1-methylheptyl ester]",51.4
8,"CC(C)C[C@H](N)C(=O)Nc1cc(C(C)C)c(OS(=O)(=O)NC(=O)Cc2c(C(C)C)cc(C(C)C)cc2C(C)C)c(C(C)C)c1 [Example 216, [2-(2,4,6-Triisopropyl-phenyl)-acetyl]-sulfamic acid 4-((S)-2-amino-4-methyl-pentanoylamino)-2,6-diisopropyl-phenyl ester; compound with trifluoro-acetic acid]",65.4
9,"CC(C)c1cc(C(C)C)c(CC(=O)NS(=O)(=O)Oc2c(C(C)C)cc(NC(=O)CN)cc2C(C)C)c(C(C)C)c1 [Example 200, [(2,4,6-Triisopropyl-phenyl)-acetyl]-sulfamic acid 4-(2-amino-acetylamino)-2,6-diisopropyl-phenyl ester]",72.7
10,"CC[C@H](CC[C@@H](C)[C@H]1CC[C@H]2[C@@H]3CCC4C[C@H](OC(=O)NS(=O)(=O)Oc5c(C(C)C)cccc5C(C)C)CC[C@]4(C)[C@H]3CC[C@]12C)C(C)C (stereo partly drawn) [Example 121, Stigmastan-3-ol, [[2,6-bis(1-methylethyl)phenoxy]sulfonyl]-carbamate, (3α)-]",< 10
11,"CC(C)c1cc(C(C)C)c(CC(=O)NS(=O)(=O)Oc2c(C(C)C)cc(NS(=O)(=O)c3cccc4c(N(C)C)cccc34)cc2C(C)C)c(C(C)C)c1 [Example 226, [(2,4,6-Triisopropyl-phenyl)-acetyl]-sulfamic acid 4-(5-dimethylamino-naphthalene-1-sulfonylamino)-2,6-diisopropyl-phenyl ester]",46.3
12,"CC(C)c1cccc(C(C)C)c1NC(=O)NS(=O)(=O)NC1c2ccccc2-c2ccccc21 [Example 19, N-[2,6-bis(1-methylethyl)phenyl]-N′-[(9H-fluoren-9-ylamino)-sulfonyl]-urea]",20.2
13,"CC(C)c1cccc(C(C)C)c1NC(=O)NS(=O)(=O)NCC(c1ccccc1)c1ccccc1 [Example 9, Urea, N-[2,6-bis(1-methylethyl)phenyl]-N′-[[(2,2-diphenylethyl)amino]-sulfonyl]-]",33.1
14,"CC(C)c1cc(C(C)C)c(CC(=O)NS(=O)(=O)Oc2c(C(C)C)cccc2C(C)C)c(C(C)C)c1 [Example 120, Sulfamic acid, [[2,4,6-tris(1-methylethyl)phenyl]acetyl]-, 2,6-bis(1-methylethyl)phenyl ester]",55
15,"COc1cc(C(C)C)c(OS(=O)(=O)NC(=O)Cc2c(C(C)C)cc(C(C)C)cc2C(C)C)c(C(C)C)c1 [Example 192, [(2,4,6-Triisopropyl-phenyl)-acetyl]-sulfamic acid 2,6-diisopropyl-4-methoxy-phenyl ester]",63.9

# Same assay, conditions: Homo sapiens; 10 μM compound; ECV-304 NF-κB.βlaZ cells stimulated with 10 ng/mL TNF-α or 100 pg/mL IL-1β, 6 hours at 37° C.; inhibition of maximum blue/green ratio; read-out: Percent Inhibition at 10 μM
row,Compound,inhibition at 10 µM [%]
1,"CC(C)c1cc(CN(C)C)cc(C(C)C)c1OC(=O)NS(=O)(=O)Oc1c(C(C)C)cccc1C(C)C [Example 130, Carbamic acid, [[2,6-bis(1-methylethyl)phenoxy]sulfonyl]-, 4-[(dimethylamino)-methyl]-2,6-bis(1-methylethyl)phenyl ester]",< 10
2,"Cc1cc(C(C)(C)C)c(OC(=O)NS(=O)(=O)NCC(c2ccccc2)c2ccccc2)c(C(C)(C)C)c1 [Example 12, Carbamic acid, [[(2,2-diphenylethyl)amino]sulfonyl]-, 2,6-bis(1,1-dimethylethyl)-4-methylphenyl ester]",57
3,"CC(C)c1cccc(C(C)C)c1OC(=O)NS(=O)(=O)Oc1c(C(C)(C)C)cccc1C(C)(C)C [Example 102, Carbamic acid, [[2,6-bis(1,1-dimethylethyl)phenoxy]sulfonyl]-, 2,6-bis(1-methylethyl)phenyl ester]",20.6
4,"CC(C)c1cc(C(C)(C)C)cc(C(C)C)c1OC(=O)NS(=O)(=O)Oc1c(C(C)C)cccc1C(C)C [Example 143, Carbamic acid, [[2,6-bis(1-methylethyl)phenoxy]sulfonyl]-, 4-(1,1-dimethylethyl)-2,6-bis(1-methylethyl)phenyl ester]",65.8
5,"CC(C)c1cc(Br)cc(C(C)C)c1OC(=O)NS(=O)(=O)Oc1c(C(C)C)cccc1C(C)C [Example 113, Carbamic acid, [[2,6-bis(1-methylethyl)phenoxy]sulfonyl]-, 4-bromo-2,6-bis(1-methylethyl)phenyl ester]",< 10
6,"CC(C)c1cccc(C(C)C)c1OC(=O)NS(=O)(=O)N1CCCC1 [Example 66, Carbamic acid, (1-pyrrolidinylsulfonyl)-, 2,6-bis(1-methylethyl)phenyl ester]",< 10
7,"CC(C)c1cccc(C(C)C)c1OC(=O)NS(=O)(=O)NC(c1ccccc1)c1ccccc1 [Example 1, Carbamic acid, [[(diphenylmethyl)amino]sulfonyl]-, 2,6-bis(1-methylethyl)phenyl ester]",24.8
8,"CC(C)c1cccc(C(C)C)c1OC(=O)NS(=O)(=O)NC(=O)Oc1c(C(C)C)cccc1C(C)C [Example 141, Carbamic acid, sulfonylbis-, bis[2,6-bis(1-methylethyl)phenyl] ester]",< 10
9,"CC(C)c1cccc(C(C)C)c1OC(=O)NS(=O)(=O)NCC(c1ccccc1)c1ccccc1 [Example 10, Carbamic acid, [[(2,2-diphenylethyl)amino]sulfonyl]-, 2,6-bis(1-methylethyl)-phenyl ester]",39.7

# Reference: patent US20020183384A1, “Methods of treating nuclear factor-kappa B mediated diseases and disorders” (priority 2001, published 2002)
